These results are taken from US20260001928A1 (CORTERIA PHARMACEUTICALS, priority 2022, published 2026).

pEC50: −log10 of the molar value. *1 amine or outer side, *2 acyl side, *3 side chain or, on linkers, in order; H or OH if unused. Where a SMILES comes first, the peptide text is derived from it. Side-chain parts run from the residue outwards. [ ]: non-standard residue; d: D form. The star is where a group is joined. γGlu = O=C(O)[C@H](CCC(=O)[*:2])N[*:1]; C14 diacid = O=C(O)CCCCCCCCCCCCC(=O)*; Api = NC1(C(=O)O)CCNCC1; AEEA = NCCOCCOCC(=O)O; Aib = CC(C)(N)C(=O)O

The target in one assay is T1, human CRF2a receptor (Homo sapiens, UniProt Q13324).
T1 construct: expressed in transfected cells; host or cells: TeloHEAC cells
T1 sequence (Q13324 1-411): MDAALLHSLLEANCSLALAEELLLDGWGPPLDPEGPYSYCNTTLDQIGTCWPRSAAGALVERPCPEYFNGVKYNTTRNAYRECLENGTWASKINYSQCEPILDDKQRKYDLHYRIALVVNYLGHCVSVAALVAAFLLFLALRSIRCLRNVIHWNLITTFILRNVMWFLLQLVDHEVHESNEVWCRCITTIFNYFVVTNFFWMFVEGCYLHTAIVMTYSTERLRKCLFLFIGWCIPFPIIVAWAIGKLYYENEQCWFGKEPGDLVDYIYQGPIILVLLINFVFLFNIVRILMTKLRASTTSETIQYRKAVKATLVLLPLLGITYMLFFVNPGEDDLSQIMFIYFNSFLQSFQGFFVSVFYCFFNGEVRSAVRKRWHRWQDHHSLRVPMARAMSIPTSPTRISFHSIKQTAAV
In words: Activity at human CRF2a receptor, cAMP functional assay in TeloHEAC cells. In kind it is cell-based. The following applies: TeloHEAC cells stably expressing human CRF2a receptor, relative to urocortin 2 (100 nM = 100%). In outline: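 TeloHEAC cells stably expressing human CRF2a (10000 cells/well) were treated with 16-point 1:2 compound dilutions in HBSS/20 mM HEPES with IBMX for 30 min at 37° C. cAMP was read by HTRF (665/620 nm ratio). EC50 was the concentration giving 50% activation, with 100 nM urocortin 2 set as 100%.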

The target in the next assay is T2, CFR1R receptor (Homo sapiens, UniProt P34998).
T2 construct: host or cells: CHO-K1 (clone 2)
T2 sequence (P34998 24-415): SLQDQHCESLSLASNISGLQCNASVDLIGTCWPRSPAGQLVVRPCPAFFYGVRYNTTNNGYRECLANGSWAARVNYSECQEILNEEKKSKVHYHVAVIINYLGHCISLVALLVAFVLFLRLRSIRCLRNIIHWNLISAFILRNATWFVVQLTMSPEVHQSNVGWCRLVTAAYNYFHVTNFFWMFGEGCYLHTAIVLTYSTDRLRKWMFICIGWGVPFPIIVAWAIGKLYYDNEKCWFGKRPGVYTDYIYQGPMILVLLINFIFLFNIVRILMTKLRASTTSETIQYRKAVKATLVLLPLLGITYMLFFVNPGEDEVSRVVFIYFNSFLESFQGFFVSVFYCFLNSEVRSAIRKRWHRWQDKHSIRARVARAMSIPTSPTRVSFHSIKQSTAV
Nature of the assay: Activity at anti-target CFR1R receptor, cAMP assay in CRF1R-overexpression CHO-K1 cells. The note with it: 100% = Sauvagine at 100 nM; for pEC50: cAMP. In kind it is cell-based. The method, boiled down:
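Grow clone 2 to near confluence at 37° C. under 5% CO2 in F12 (Hams) with 10% FBS and G418, harvest, and freeze in 10% DMSO. Thaw and plate at 4000 cells/well. Then proceed per the TeloHAEC method, normalising to Sauvagine 100 nM as maximum.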
On the technique in general: cAMP levels reflect the balance of adenylyl cyclase and phosphodiesterase activity.

As to `CC[C@H](C)[C@H](NC(C)=O)C(=O)N[C@H](C(=O)N[C@@H](CC(C)C)C(=O)N[C@@H](CO)C(=O)N[C@@H](CC(C)C)C(=O)N[C@@H](CC(=O)O)C(=O)N[C@@H](C(=O)N1CCC[C@H]1C(=O)N[C@H](C(=O)N[C@@H](CCCCN)C(=O)N[C@@H](CC(C)C)C(=O)N[C@@H](CCCCNC(=O)CC[C@H](NC(=O)CCCCCCCCCCCCC(=O)O)C(=O)O)C(=O)N[C@@H](CCCCN)C(=O)N[C@H](C(=O)N[C@@H](CC(C)C)C(=O)N[C@@H](CC(C)C)C(=O)N[C@@H](CCC(=O)O)C(=O)N[C@@H](CCC(N)=O)C(=O)N[C@@H](CCC(=O)O)C(=O)N[C@@H](CCCCN)C(=O)N[C@@H](CCC(N)=O)C(=O)N[C@@H](CCCCN)C(=O)N[C@@H](C)C(=O)N[C@@H](CCC(N)=O)C(=O)N[C@@H](CCCNC(=N)N)C(=O)N[C@@H](CCC(=O)O)C(=O)N[C@@H](CCC(N)=O)C(=O)N[C@@H](C)C(=O)N[C@@H](CCC(=O)O)C(=O)N[C@H](C(=O)N[C@@H](CC(N)=O)C(=O)NC1(C(=O)N[C@@H](CCC(N)=O)C(=O)N[C@H](C(=O)N[C@@H](CC(C)C)C(=O)N[C@@H](C)C(=O)N[C@@H](CCC(N)=O)C(=O)N[C@H](C(N)=O)C(C)C)[C@@H](C)CC)CCNCC1)[C@@H](C)O)[C@@H](C)CC)[C@@H](C)CC)C(C)C)C(C)C` [compound 169] (Ac-IVLSLD[dV]PIKLK([γGlu-C14 diacid])KILLEQEKQKAQREQAETN[Api]QILAQV-NH2), the results for the pEC50 at human CRF2a receptor and on CFR1R receptor were 8.87 and under 6.60, respectively. Besides, the “Emax (% I)” value on CFR1R receptor is 13 % I.
The like results for `CC[C@H](C)[C@H](NC(C)=O)C(=O)N[C@H](C(=O)N[C@@H](CC(C)C)C(=O)N[C@@H](CO)C(=O)N[C@@H](CC(C)C)C(=O)N[C@@H](CC(=O)O)C(=O)N[C@@H](C(=O)N1CCC[C@H]1C(=O)N[C@H](C(=O)N[C@@H](CCCCN)C(=O)N[C@@H](CC(C)C)C(=O)N[C@@H](CCCCNC(=O)CC[C@H](NC(=O)CCCCCCCCCCCCC(=O)O)C(=O)O)C(=O)N[C@@H](CCCCN)C(=O)N[C@H](C(=O)N[C@@H](CC(C)C)C(=O)N[C@@H](CC(C)C)C(=O)N[C@@H](CCC(=O)O)C(=O)N[C@@H](CCC(N)=O)C(=O)N[C@@H](CCC(=O)O)C(=O)N[C@@H](CCCCN)C(=O)N[C@@H](CCC(N)=O)C(=O)N[C@@H](CCCCN)C(=O)NC(C)(C)C(=O)N[C@@H](CCC(N)=O)C(=O)N[C@@H](CCCNC(=N)N)C(=O)N[C@@H](CCC(=O)O)C(=O)N[C@@H](CCC(N)=O)C(=O)N[C@@H](C)C(=O)N[C@@H](CCC(=O)O)C(=O)N[C@H](C(=O)N[C@@H](CC(N)=O)C(=O)NC1(C(=O)N[C@@H](CCC(N)=O)C(=O)N[C@H](C(=O)N[C@@H](CC(C)C)C(=O)N[C@@H](C)C(=O)N[C@@H](CCC(N)=O)C(=O)N[C@H](C(N)=O)C(C)C)[C@@H](C)CC)CCNCC1)[C@@H](C)O)[C@@H](C)CC)[C@@H](C)CC)C(C)C)C(C)C` [compound 170] (Ac-IVLSLD[dV]PIKLK([γGlu-C14 diacid])KILLEQEKQK[Aib]QREQAETN[Api]QILAQV-NH2) were, in that order, 8.89, under 6.60 and 5 % I.
The like results for `CC[C@H](C)[C@H](NC(C)=O)C(=O)N[C@H](C(=O)N[C@@H](CC(C)C)C(=O)N[C@@H](CO)C(=O)N[C@@H](CC(C)C)C(=O)N[C@@H](CC(=O)O)C(=O)N[C@@H](C(=O)N1CCC[C@H]1C(=O)N[C@H](C(=O)N[C@@H](CCCCN)C(=O)N[C@@H](CC(C)C)C(=O)N[C@@H](CCCCNC(=O)COCCOCCNC(=O)COCCOCCNC(=O)CC[C@H](NC(=O)CCCCCCCCCCCCC(=O)O)C(=O)O)C(=O)N[C@@H](CCCCN)C(=O)N[C@H](C(=O)N[C@@H](CC(C)C)C(=O)N[C@@H](CC(C)C)C(=O)N[C@@H](CCC(=O)O)C(=O)N[C@@H](CCC(N)=O)C(=O)N[C@@H](CCC(=O)O)C(=O)N[C@@H](CCCCN)C(=O)N[C@@H](CCC(N)=O)C(=O)N[C@@H](CCCCN)C(=O)N[C@@H](CCCCN)C(=O)N[C@@H](CCC(N)=O)C(=O)N[C@@H](CCCNC(=N)N)C(=O)N[C@@H](CCC(=O)O)C(=O)N[C@@H](CCC(N)=O)C(=O)N[C@@H](C)C(=O)N[C@@H](CCC(=O)O)C(=O)N[C@H](C(=O)N[C@@H](CC(N)=O)C(=O)NC(C)(C)C(=O)N[C@@H](CCC(N)=O)C(=O)N[C@H](C(=O)N[C@@H](CC(C)C)C(=O)N[C@@H](C)C(=O)N[C@@H](CCC(N)=O)C(=O)N[C@H](C(N)=O)C(C)C)[C@@H](C)CC)[C@@H](C)O)[C@@H](C)CC)[C@@H](C)CC)C(C)C)C(C)C` [compound 171] (Ac-IVLSLD[dV]PIKLK([AEEA-AEEA-γGlu-C14 diacid])KILLEQEKQKKQREQAETN[Aib]QILAQV-NH2) were, in that order, 8.24, under 6.60 and 0 % I.
The like results for `CC[C@H](C)[C@H](NC(C)=O)C(=O)N[C@H](C(=O)N[C@@H](CC(C)C)C(=O)N[C@@H](CO)C(=O)N[C@@H](CC(C)C)C(=O)N[C@@H](CC(=O)O)C(=O)N[C@@H](C(=O)N1CCC[C@H]1C(=O)N[C@H](C(=O)N[C@@H](CCCCN)C(=O)N[C@@H](CC(C)C)C(=O)N[C@@H](CCCCNC(=O)COCCOCCNC(=O)COCCOCCNC(=O)CC[C@H](NC(=O)CCCCCCCCCCCCC(=O)O)C(=O)O)C(=O)N[C@@H](CCCCN)C(=O)N[C@H](C(=O)N[C@@H](CC(C)C)C(=O)N[C@@H](CC(C)C)C(=O)N[C@@H](CCC(=O)O)C(=O)N[C@@H](CCC(N)=O)C(=O)N[C@@H](CCC(=O)O)C(=O)N[C@@H](CCCCN)C(=O)N[C@@H](CCC(N)=O)C(=O)N[C@@H](CCCCN)C(=O)N[C@@H](CCCCN)C(=O)N[C@@H](CCC(N)=O)C(=O)N[C@@H](CCCNC(=N)N)C(=O)N[C@@H](CCC(=O)O)C(=O)N[C@@H](CCC(N)=O)C(=O)N[C@@H](C)C(=O)N[C@@H](CCC(=O)O)C(=O)N[C@H](C(=O)N[C@@H](CC(N)=O)C(=O)NC1(C(=O)N[C@@H](CCC(N)=O)C(=O)N[C@H](C(=O)N[C@@H](CC(C)C)C(=O)N[C@@H](C)C(=O)N[C@@H](CCC(N)=O)C(=O)N[C@H](C(N)=O)C(C)C)[C@@H](C)CC)CCNCC1)[C@@H](C)O)[C@@H](C)CC)[C@@H](C)CC)C(C)C)C(C)C` [compound 172] (Ac-IVLSLD[dV]PIKLK([AEEA-AEEA-γGlu-C14 diacid])KILLEQEKQKKQREQAETN[Api]QILAQV-NH2) were, in that order, 7.79, under 6.60 and −6 % I.
As for `CC[C@H](C)[C@H](NC(C)=O)C(=O)N[C@H](C(=O)N[C@@H](CC(C)C)C(=O)N[C@@H](CO)C(=O)N[C@@H](CC(C)C)C(=O)N[C@@H](CC(=O)O)C(=O)N[C@@H](C(=O)N1CCC[C@H]1C(=O)N[C@H](C(=O)N[C@@H](CCCCN)C(=O)N[C@@H](CC(C)C)C(=O)N[C@@H](CCCCNC(=O)COCCOCCNC(=O)COCCOCCNC(=O)CC[C@H](NC(=O)CCCCCCCCCCCCC(=O)O)C(=O)O)C(=O)N[C@@H](CCCCN)C(=O)N[C@H](C(=O)N[C@@H](CC(C)C)C(=O)N[C@@H](CC(C)C)C(=O)N[C@@H](CCC(=O)O)C(=O)N[C@@H](CCC(N)=O)C(=O)N[C@@H](CCC(=O)O)C(=O)N[C@@H](CCCCN)C(=O)N[C@@H](CCC(N)=O)C(=O)N[C@@H](CCCCN)C(=O)NC(C)(C)C(=O)N[C@@H](CCC(N)=O)C(=O)N[C@@H](CCCNC(=N)N)C(=O)N[C@@H](CCC(=O)O)C(=O)N[C@@H](CCC(N)=O)C(=O)N[C@@H](C)C(=O)N[C@@H](CCC(=O)O)C(=O)N[C@H](C(=O)N[C@@H](CC(N)=O)C(=O)NC1(C(=O)N[C@@H](CCC(N)=O)C(=O)N[C@H](C(=O)N[C@@H](CC(C)C)C(=O)N[C@@H](C)C(=O)N[C@@H](CCC(N)=O)C(=O)N[C@H](C(N)=O)C(C)C)[C@@H](C)CC)CCNCC1)[C@@H](C)O)[C@@H](C)CC)[C@@H](C)CC)C(C)C)C(C)C` [compound 173] (Ac-IVLSLD[dV]PIKLK([AEEA-AEEA-γGlu-C14 diacid])KILLEQEKQK[Aib]QREQAETN[Api]QILAQV-NH2), the negative logarithm of the EC50 (pEC50) (in general, the negative decadic logarithm of the EC50, by convention in mol/L) on human CRF2a receptor is 7.55. Further, on CFR1R receptor, the “Emax (% I)” value is listed as −1 % I and the pEC50 is under 6.60.
